Source: publication PMC8776995 (Frontiers in Chemistry, 2022)
“And” between values parts separate entries of the source, which are not always exact repeats. Equal values may be shown once. Each block holds one molecule with its values, some of them ahead of it.

Legend:
[1] = tested on: EGFR phosphorylation (Tyr1068) in H460 cells; test: Western blot, p-EGFR/EGFR in H460; conditions: for p-EGFR/EGFR: band density ratio; for p-EGFR/EGFR relative to DMSO: ratio normalised to DMSO; for phosphorylation of EGFR (western blot): H460, especially at 10 μM
Description: We also performed western blot analysis to evaluate the impact of e4 and e12 on EGFR signaling in PC-9 and H460 cells.
H460 cells were seeded in six-well plates with serum-free medium overnight, and then treated complete medium containing 0.1% DMSO, various concentrations (0.1, 1 and 10 μM) of either compound e4 or e12 for 2 h, respectively. […] Then the H460 cells were treated with complete medium containing EGF (10 ng/ml) for 5 min. Then the cells were harvested and washed with PBS, centrifuged, resuspended in 100–200 μl of RIPA lysis buffer containing Protease and Phosphatase Inhibitor Cocktail (1X), and then centrifuged for 5 min at 12,000 rpm at 4°C. The supernatant was used for protein analysis. […] Then the membrane was washed 5 min (X3) and incubated at 1:3,000 dilution of anti-rabbit secondary antibodies or 1:1,000 dilution of anti-mouse secondary antibodies for 1 h at RT. After washing with TBST 5 min (X3), protein bands were developed by chemiluminescence. The protein levels were quantified by the gray values of the bands in the resulting images by ImageJ, and the control group was used as the standard. […] The PC-9 cells were harvested and analyzed as above.

[2] = tested on: PC-9 xenograft; test: In vivo antitumor activity, PC-9 xenograft in NSG mice; design: species or system mouse
Description: The mouse body mass was recorded as well.

[3] = Body mass of PC-9 tumor-bearing NSG mice after treatment; conditions: for Change in body weight: individual animals
Description: PC-9 xenografts were established by subcutaneous transplantation of cancer cells into the flanks of NSG mice (male, 4–6-week old). […] Tumor volumes were measured using calipers and calculated with the formula: V = length × width^2/2. The mouse body mass was recorded as well. 19 days after inoculation, the mice were sacrificed and the tumors were harvested and weighed.

Compound: COCCOc1cc2ncnc(Nc3cccc(-c4cn(Cc5cc(Br)cc(Br)c5)nn4)c3)c2cc1OCCOC [e4, [6,7-Bis-(2-methoxy-ethoxy)-quinazolin-4-yl]-{3-[1-(3,5-dibromo-benzyl)-1H-[1,2,3]triazol-4-yl]-phenyl}-amine]
p-EGFR/EGFR ([1]; H460, 0.1 uM): 0.8093
p-EGFR/EGFR relative to DMSO ([1]; H460, 0.1 uM): 0.9725
p-EGFR/EGFR ([1]; H460, 1 uM): 0.8837
p-EGFR/EGFR relative to DMSO ([1]; H460, 1 uM): 1.062
p-EGFR/EGFR ([1]; H460, 10 uM): 0.3865
p-EGFR/EGFR relative to DMSO ([1]; H460, 10 uM): 0.4645
phosphorylation of EGFR (western blot) [1]: suppressed
tumor volume mean ([2]; Day13, group mean): 63.4029 mm3
tumor length ([2]; Day13, individual animals): 5.08 mm and 6.5 mm and 4.8 mm and 6.3 mm and 6.04 mm and 5.8 mm and 7.4 mm and 6.1 mm
tumor volume ([2]; Day13, individual animals): 59.9938 mm3 and 60.0925 mm3 and 44.376 mm3 and 55.566 mm3 and 68.426 mm3 and 38.5875 mm3 and 71.3446 mm3 and 78.292 mm3 and 93.9476 mm3
tumor width ([2]; Day13, individual animals): 4.86 mm and 4.3 mm and 4.2 mm and 4.76 mm and 3.5 mm and 4.96 mm and 4.6 mm and 5.55 mm
tumor volume mean ([2]; Day15, group mean): 44.2866 mm3
tumor length ([2]; Day15, individual animals): 3.97 mm and 5.56 mm and 5.73 mm and 4.91 mm and 4.11 mm and 5.48 mm and 4.95 mm and 6.93 mm and 5.72 mm
tumor volume ([2]; Day15, individual animals): 23.9012 mm3 and 57.8062 mm3 and 55.2146 mm3 and 35.078 mm3 and 33.0446 mm3 and 32.9921 mm3 and 21.979 mm3 and 91.1881 mm3 and 47.3756 mm3
tumor width ([2]; Day15, individual animals): 3.47 mm and 4.56 mm and 4.39 mm and 3.78 mm and 4.01 mm and 2.98 mm and 5.13 mm and 4.07 mm
tumor volume mean ([2]; Day17, group mean): 35.7355 mm3
tumor length ([2]; Day17, individual animals): 3.7 mm and 7.6 mm and 4.76 mm and 5.8 mm and 4.94 mm and 4.9 mm and 5.1 mm and 4.6 mm
tumor volume ([2]; Day17, individual animals): 17.7785 mm3 and 54.872 mm3 and 38.4618 mm3 and 25.4086 mm3 and 28.0515 mm3 and 47.432 mm3 and 38.7855 mm3 and 30.2575 mm3 and 40.572 mm3
tumor width ([2]; Day17, individual animals): 3.1 mm and 3.8 mm and 4.02 mm and 2.96 mm and 3.37 mm and 4.4 mm and 3.9 mm and 3.5 mm and 4.2 mm
tumor volume mean ([2]; Day19, group mean): 22.669 mm3
Tumor weight ([2]; Day19, individual animals): 0.07 g and 0.02 g and 0.04 g and 0.03 g
tumor length ([2]; Day19, individual animals): 4.55 mm and 5.74 mm and 3.59 mm and 2.83 mm and 2.52 mm and 3 mm and 4.51 mm and 5.54 mm and 4.24 mm
tumor volume ([2]; Day19, individual animals): 7.871 mm3 and 60.7292 mm3 and 20.5068 mm3 and 2.813 mm3 and 5.663 mm3 and 9.6774 mm3 and 39.0241 mm3 and 23.1353 mm3 and 34.6018 mm3
tumor width ([2]; Day19, individual animals): 1.86 mm and 4.6 mm and 3.38 mm and 1.41 mm and 2.12 mm and 2.54 mm and 4.16 mm and 2.89 mm and 4.04 mm
Body weigh ([3]; Day13, individual animals): 27 g and 25.6 g and 24.1 g and 27.3 g and 28.8 g
Body weigh ([3]; Day15, individual animals): 25.7 g and 26.2 g and 25.9 g and 27.3 g and 29 g
Change in body weight ([3]; Day15 vs previous weighing): -4.815% and 2.344% and 7.469% and 0% and 0.6944%
Body weigh ([3]; Day17, individual animals): 26 g and 23.9 g and 26.1 g and 27.3 g and 29.1 g
Change in body weight ([3]; Day17 vs previous weighing): 1.167% and -8.779% and 0.7722% and 0% and 0.3448%
Body weigh ([3]; Day19, individual animals): 25.9 g and 26 g and 26.2 g and 27.1 g and 29.1 g
Change in body weight ([3]; Day19 vs previous weighing): -0.3846% and 8.787% and 0.3831% and -0.7326% and 0%

melting point: 95 to 98 °C
Compound: COCCOc1cc2ncnc(Nc3cccc(-c4cn(-c5ccc(C)cc5)nn4)c3)c2cc1OCCOC [e12, [6,7-Bis-(2-methoxy-ethoxy)-quinazolin-4-yl]-[3-(1-p-tolyl-1H-[1,2,3]triazol-4-yl)-phenyl]-amine]
p-EGFR/EGFR ([1]; H460, 0.1 uM): 0.7896
p-EGFR/EGFR relative to DMSO ([1]; H460, 0.1 uM): 0.9489
p-EGFR/EGFR ([1]; H460, 1 uM): 0.75
p-EGFR/EGFR relative to DMSO ([1]; H460, 1 uM): 0.9013
p-EGFR/EGFR ([1]; H460, 10 uM): 0.166
p-EGFR/EGFR relative to DMSO ([1]; H460, 10 uM): 0.1995
phosphorylation of EGFR (western blot) [1]: suppressed
